Several values for one entry are separate records, joined by “and”; a condition that tells them apart may be missing. Equal values may be shown once.

For this assay, the system named is A/California/09. Also on record: species or system BALB/c mice. As to conditions: mouse, in vivo.

With `CCOC(=O)C1=C[C@@H](OC(CC)CC)[C@H](NC(C)=O)[C@@H](N)C1` [oseltamivir], the survival was 10/10 and 0 out of 10 and no survival.

These data come from article PMC7856883 (Advanced Science, 2020).
